Measured values reported in patent US11639332B2, “Methods and compositions of isoindoline-1,3-dione and isoindole prodrugs useful for treating cancer, ulcerative colitis and related inflammatory diseases” (AMGEN (EUROPE) GMBH, priority 2018, dated 2023).
Several values for one entry are separate records, joined by “and”; a condition that tells them apart may be missing. Identical values can stand only once.

System: Trinitrobenzenesulfonic Acid (TNBS) Rat Model of Colonic Inflammation
Test: Trinitrobenzenesulfonic acid (TNBS) rat model of colonic inflammation, oral treatment Days 1-6, evaluation Day 7
Type: in vivo, Sprague-Dawley rats
Set-up: key to Average Colonic Score: sum of adhesions, strictures, ulcers and wall thickness scores
Conditions: for Average # Ulcers / Average Colon Length / Average Colon Weight / Average Colonic Score / Average Ratio (colon length/colon weight) / Average Ulcer Length / Average Wall Thickness / Average Adhesions / Average Colon Wall Thickness, score / Average Strictures / Average Ulcers, score / Average Rat Weight: group mean; for Average # Ulcers / Average Colon Length / Average Colon Weight / Average Colonic Score / Average Ratio (colon length/colon weight) / Average Ulcer Length / Average Wall Thickness / Average Adhesions / Average Colon Wall Thickness, score / Average Strictures / Average Ulcers, score / # Ulcers / Colon Length / Colon Weight / Ratio (colon length/colon weight) / Ulcer Length / Wall Thickness / Colon Wall Thickness, score / Ulcers, score / Strictures / Adhesions / Colonic Score: Day 7; for Average Adhesions / Average Colon Wall Thickness, score: score 0-2; for Average Strictures / Average Ulcers, score: score 0-3; for # Ulcers / Colon Length / Colon Weight / Ratio (colon length/colon weight) / Ulcer Length / Wall Thickness / Colon Wall Thickness, score / Ulcers, score / Strictures / Adhesions / Colonic Score / Rat Weight: individual rats; for Colon Wall Thickness, score: less than 1 mm=0, 1-3 mm=1, >3 mm=2; for Ulcers, score: none=0, linear ulceration <1 cm=1, two linear ulcers <1 cm=2, more sites or one large ulcer=3; for Strictures: score none=0, mild=1, moderate=2, severe, proximal dilatation=3; for Adhesions: score none=0, minimal=1, involving several bowel loops=2; for Colonic Score: sum of adhesions, strictures, ulcers and wall thickness scores
Experimental: In Vivo Efficacy of PDE4 Inhibitor Prodrug in the Trinitrobenzenesulfonic Acid (TNBS) Rat Model of Colonic Inflammation
2. 1.62 g of prodrug from Example 2 (WB301), lot 2 (MW 587.12) in a clear 20 mL glass vial (orange material) which was stored at 4-8° C.
38 Sprague-Dawley rats (Harlan Sprague-Dawley, Inc. male, PO #599229, R #3450, 200-220 g) were received, individually examined and housed in nine cages of four rats each and one cage containing two rats. No clinical signs of disease or distress were observed. The rats were placed in quarantine with daily inspections. The rats were ear notched (SOP 800) for identification purposes, weighed (RESULTS), and sorted into four treatment groups of eight rats each based upon average body weight. The rats were individually examined and found to be free of any clinical signs of disease or distress. No deaths were recorded during the quarantine period. The rats were released to routine maintenance.
A 16 mg/ml TNBS solution was prepared be adding 2.729 ml picrylsulfonic acid solution (1 M, FLU KA, Cat. 92822, lot CDBB6609V) to 22.271 ml de-ionized water (dH20) and 25 ml 100% ethanol (200 proof, Sigma, Cat. E7023, lot SHBH3633V).
The rats were weighed (RESULTS), anesthetized (SOP1810) and Groups 1-4 were intra-rectally instilled with 4 ml/kg TNBS solution (64 mg/kg), the anus was pinched closed and the rat held inverted for one minute.
400 mg (-)riboflavin was dissolved in 40 ml DMSO (Sigma, Cat. D5879, lot 16K0127) by sonication in a 40° C. water bath for 20 minutes in an amber glass bottle, followed by storage at room temperature overnight to prepare a 10 mg/ml yellow solution.
135 mg NaOH (Fisher Scientific, Cat. S320, lot 066620) was dissolved in 100 ml dH2O to prepare a 1.35 mg/ml solution. 128.46 mg prednisolone 21-hemisuccinate sodium salt (Sigma, Cat. P4153, lot BCBB6136V, salt factor 1.339) was dissolved in 9.59 ml (-)riboflavin/DMSO followed by addition of 9.59 ml PEG400 (Sigma, Cat. 91893, lot BCBB7720). 28.781 aqueous NaOH was added with sonication to prepare a 2 mg/ml solution for Group 4. 44 mg WB301 was vortexed in 2.19 ml (-)riboflavin/DMSO to yield an orange solution followed by addition of 2.19 ml PEG400. 6.621 ml aqueous NaOH was added with sonication to prepare a 4 mg/ml solution for Group 1. 132 mg WB301 was vortexed in 2.19 ml (-)riboflavin/DMSO to yield an orange solution followed by addition of 2.19 ml PEG400. 6.621 ml aqueous NaOH was added with sonication to prepare a 12 mg/ml solution for Group 2. 6.6 mg apremilast was vortexed in 2.2 ml (-)riboflavin/DMSO to yield an orange solution followed by addition of 6.6 ml PEG400. 2.2 ml dH2O was added to prepare a 0.6 mg/ml solution for Group 3.
The rats were weighed (RESULTS) and daily oral (PO, SOP 1651) dosing at 5 ml/kg was initiated as in TABLE 1.
The rats were weighed (RESULTS) and the animals were dosed as described above daily. WB301 and apremilast solutions were prepared fresh daily as described above.
The rats were weighed (RESULTS) anesthetized, a midline incision was made in the abdomen and the colon was evaluated for adhesions and stricture (RESULTS). The colon was removed and the length recorded (RESULTS). A midline incision was made the entire length of the colon, the contents removed and the colon weight and colon wall thickness recorded (RESULTS). A section of the colon was preserved in 20 volumes of 10% neutral buffered formalin (Richard-Allan Scientific, Cat. 5701, lot 378532, exp07/2020). The carcasses were disposed of.
3) involving several bowel loops=2
4) severe, proximal dilatation=3
2) linear ulceration <1 cm=1
3) two linear ulcers <1 cm=2
4) more sites of ulceration or one large ulcer=3

[1] = Group 1, 20 mg/kg once daily oral, starting 24 hours after TNBS
[2] = Group 2, 60 mg/kg once daily oral
[3] = Group 2, 60 mg/kg PO daily, study day 0, day of TNBS, before dosing
[4] = Group 2, 60 mg/kg PO daily, study day 1, before first dose
[5] = Group 2, 60 mg/kg PO daily, study day 2
[6] = Group 2, 60 mg/kg PO daily, study day 3
[7] = Group 2, 60 mg/kg PO daily, study day 4
[8] = Group 2, 60 mg/kg PO daily, study day 5
[9] = Group 2, 60 mg/kg PO daily, study day 6
[10] = Group 2, 60 mg/kg PO daily, study day 7
[11] = Group 2, 60 mg/kg PO daily, study day −3, before TNBS and dosing

## CCOc1cc([C@@H](CS(C)(=O)=O)N2C(=O)c3cccc(/N=N/c4ccc(O)c(C(=O)O)c4)c3C2=O)ccc1OC [WB301]
20 and 60 mg/kg once daily oral, starting 24 hours after TNBS
  effect on TNBS-induced damage across doses: dose-dependent reduction in the TNBS-induced damage
[1]
  amelioratory effect on TNBS-induced damage: no apparent amelioratory effect was observed
  weight loss: 15%
[2]
  macroscopic disease scores: improvement of the macroscopic disease scores
  study day on which rats began to recover from TNBS-induced weight loss: 6 days
Group 2, 60 mg/kg once daily oral, assuming a colonic score of 10 for vehicle-treated rats
  reduction in overall colonic score: 25%
Group 2, 60 mg/kg once daily oral, starting DAY 4, indicative of partial colon function
  stool observation in cages/bedding: Diarrhea was observed in the bedding
Group 1, 20 mg/kg PO daily
  Average # Ulcers: 1
  Average Colon Length: 11.4 cm
  Average Colon Weight: 6.652 g
  Average Colonic Score: 9.1
  Average Ratio (colon length/colon weight): 1.915 cm/g
  Average Ulcer Length: 6.3 cm
  Average Wall Thickness: 3.4 mm
  Average Adhesions: 1.5
  Average Colon Wall Thickness, score: 1.8
  Average Strictures: 2.9
  Average Ulcers, score: 3.0
  # Ulcers: 1
  Colon Length: 12.0 cm and 10.0 cm and 10.5 cm and 11.0 cm (3×) and 12.5 cm and 13.5 cm
  Colon Weight: 9.124 g and 7.629 g and 3.180 g and 4.920 g and 9.000 g and 8.300 g and 6.200 g and 4.862 g
  Ratio (colon length/colon weight): 1.315 cm/g and 1.311 cm/g and 3.302 cm/g and 2.236 cm/g and 1.389 cm/g and 1.325 cm/g and 2.177 cm/g and 2.262 cm/g
  Ulcer Length: 6.0 cm (3×) and 6.3 cm and 7.0 cm and 5.5 cm and 6.8 cm and 6.5 cm
  Wall Thickness: 3.5 mm and 3.2 mm and 4.0 mm (2×) and 3.7 mm (2×) and 2.5 mm (2×)
  Colon Wall Thickness, score: 2 (6×) and 1 (2×)
  Ulcers, score: 3
  Strictures: 3 (7×) and 2
  Adhesions: 1 (4×) and 2 (4×)
  Colonic Score: 9 (2×) and 10 (4×) and 8 and 7
Group 1, 20 mg/kg PO daily, study day 0, day of TNBS, before dosing
  Average Rat Weight: 219 g
Group 1, 20 mg/kg PO daily, study day 1, before first dose
  Average Rat Weight: 213 g
Group 1, 20 mg/kg PO daily, study day 2
  Average Rat Weight: 203 g
Group 1, 20 mg/kg PO daily, study day 3
  Average Rat Weight: 197 g
Group 1, 20 mg/kg PO daily, study day 4
  Average Rat Weight: 195 g
Group 1, 20 mg/kg PO daily, study day 5
  Average Rat Weight: 189 g
Group 1, 20 mg/kg PO daily, study day 6
  Average Rat Weight: 189 g
Group 1, 20 mg/kg PO daily, study day 7
  Average Rat Weight: 186 g
Group 1, 20 mg/kg PO daily, study day −3, before TNBS and dosing
  Average Rat Weight: 215 g
Group 2, 60 mg/kg PO daily
  Average # Ulcers: 1
  Average Colon Length: 14.4 cm
  Average Colon Weight: 4.604 g
  Average Colonic Score: 7.5
  Average Ratio (colon length/colon weight): 3.891 cm/g
  Average Ulcer Length: 5.6 cm
  Average Wall Thickness: 2.6 mm
  Average Adhesions: 1.3
  Average Colon Wall Thickness, score: 1.1
  Average Strictures: 2.1
  Average Ulcers, score: 3.0
  # Ulcers: 1
  Colon Length: 15.0 cm (5×) and 14.5 cm and 14.0 cm and 11.5 cm
  Colon Weight: 2.551 g and 1.969 g and 6.164 g and 5.418 g and 9.037 g and 4.831 g and 4.140 g and 2.719 g
  Ratio (colon length/colon weight): 5.880 cm/g and 7.618 cm/g and 2.352 cm/g and 2.769 cm/g and 1.549 cm/g and 3.105 cm/g and 3.623 cm/g and 4.229 cm/g
  Ulcer Length: 3.5 cm and 4.0 cm and 6.0 cm (2×) and 6.5 cm (2×) and 6.7 cm and 5.5 cm
  Wall Thickness: 2.0 mm (4×) and 3.0 mm (2×) and 4.0 mm and 2.5 mm
  Colon Wall Thickness, score: 1 (7×) and 2
  Ulcers, score: 3
  Strictures: 1 (2×) and 0 and 3 (5×)
  Adhesions: 0 (2×) and 2 (4×) and 1 (2×)
  Colonic Score: 5 and 4 and 9 (3×) and 8 and 10 and 6
[3]
  Average Rat Weight: 216 g
  Rat Weight: 217 g and 215 g and 214 g and 222 g and 208 g and 211 g and 220 g (2×)
[4]
  Average Rat Weight: 207 g
  Rat Weight: 206 g and 202 g and 213 g (2×) and 207 g and 203 g (2×) and 212 g
[5]
  Average Rat Weight: 200 g
  Rat Weight: 205 g and 199 g and 204 g and 200 g (2×) and 195 g and 206 g and 193 g
[6]
  Average Rat Weight: 193 g
  Rat Weight: 199 g and 200 g (2×) and 197 g and 196 g and 184 g (2×) and 183 g
[7]
  Average Rat Weight: 192 g
  Rat Weight: 192 g and 212 g and 200 g (2×) and 193 g and 179 g and 183 g and 176 g
[8]
  Average Rat Weight: 191 g
  Rat Weight: 196 g and 226 g and 191 g and 192 g and 182 g and 174 g and 199 g and 171 g
[9]
  Average Rat Weight: 195 g
  Rat Weight: 207 g and 233 g and 193 g and 197 g and 184 g and 172 g and 199 g and 171 g
[10]
  Average Rat Weight: 196 g
  Rat Weight: 220 g and 244 g and 187 g and 189 g and 178 g and 169 g and 196 g and 181 g
[11]
  Average Rat Weight: 215 g
  Rat Weight: 214 g and 212 g and 215 g and 219 g and 208 g and 210 g and 220 g (2×)
